Values of other authors, collected in US12502363B2, “Ketamine and ketamine/nap for treatment of ADNP syndrome and related neurological conditions” (ADNP Kids Research Foundation, priority 2019, dated 2025).

What was measured:
[1] = system: ADNP gene expression in the somatosensory cortex; conditions: somatosensory cortex of post-natal day 7 rats, anesthetic dose of ketamine (20 mg/kg), microarray
ADNP = conditions: 5 mg/kg ketamine, healthy rats without ADNP mutations
[2] = system: activated caspase-3 (AC3); conditions: anesthetic doses of ketamine

## CNC1(c2ccccc2Cl)CCCCC1=O (stereo not drawn) [ketamine, Ketamine]
[1]
  ADNP gene expression: increases significantly
ADNP
  ADNP in the Fasciola Cinereum (FC) and SSC layers II/III: increased ADNP
[2]
  levels of pro-apoptotic enzyme activated caspase-3 (AC3): increased levels
